# Reference: paper PMC9124866, “Structure-Activity Relationships of Dopamine Transporter Pharmacological Chaperones” (Frontiers in Cellular Neuroscience, 2022)
# Experiments:
# Format in all cases: cell-based
# [1] = target: YFP-HA-βlac-DAT (Homo sapiens, UniProt Q01959); test: β-lactamase (βlac) surface expression assay; conditions: HEK293, read-out: EMax (%), WT DAT surface expression, HEK cells expressing YFP-HA-βlac-DAT, overnight (16 h) incubation, up to 100 μM, normalized to vehicle; assumed effective EMax
# Procedure: The βlac surface expression assay was performed by following the method outlined in [Lam et al. (2013)] and [Beerepoot et al. (2015], [2016)]. The assay substrate nitrocefin (BD biosciences) was dissolved in dimethyl sulfoxide (DMSO) at a concentration of 10 mM and frozen at −80°C. Immediately before use, it was thawed and diluted to a final concentration of 100 μM in phosphate buffered saline (PBS). Cells (1 × 10^5/well) were seeded into a poly-D-lysine-coated 48-well plate and incubated for 24 h, prior to drug treatment. Drugs were added to individual wells at varying concentrations and incubated for 16 h. Subsequently, the media was aspirated, and the cells were washed twice with PBS. After removal of the final PBS wash, 200 μL of the nitrocefin solution was added to each well and the absorbance was immediately read. The EPOCH microplate spectrophotometer (BioTek) was used to measure absorbance (486 nm) for each well every minute for 30 min. The rate of reaction (slope of the curve) was used as the readout for the assay ([Beerepoot et al., 2015]). To determine suitable concentration ranges for each drug, they were dissolved in PBS or DMSO at the highest concentration possible. From here, the solutions were serial diluted 1/10 to yield 8 different concentrations. βLAC cells were then treated with the varying drug concentrations and cell viability was recorded using light microscopy. For additional measure, nitrocefin was added and the absorbance was read. For certain cases, Trypan Blue was used to quantitatively differentiate increased cell death from reduced cell division. […] Five or six doses were generally used in subsequent dosing experiments, starting at the highest non-toxic concentration.
# Data analysis was performed using GraphPad Prism (GraphPad Software, La Jolla, CA). Linear regression analysis was performed on βLAC time points to determine the slope, thus the rate of reaction, for comparison. Furthermore, the slope was also used to determine the degree of dopamine uptake in the dopamine uptake assays. Non-linear regression, fitting to the log(agonist) vs. response and log(inhibitor) vs. response model curve, was used to determine dose-response relationships of surface expression and uptake assays, respectively. One-way ANOVA with Dunnett’s post hoc-test was used for the β-lactamase assay and one-way ANOVA with Bonferroni correction was used for western blot analysis.
# Among these were RTI-1, RTI-2, RTI-5, RTI-6, RTI-11, RTI-20, and PAL-1007. […] The EMax values of all the analyzed drugs are included in Figure 1.
# The pharmacological chaperone ability of the 15 ibogaine and tryptamine analogs, shown in Figure 3, were measured using the βlac surface expression assay. HEK cells expressing YFP-HA-βlac-DAT were incubated overnight with these compounds at concentrations varying by log and half-log dilutions, starting at 100 μM final concentration. […] Furthermore, it was important to determine whether the β-carboline analogs could also elicit a chaperone effect because they are not classified as DAT ligands ([Cao et al., 2007]). […] Removing the nitrogen from the ring reduced efficacy as observed with frovatriptan (103 ± 1.4%). […] Evodiamine (54 ± 1.7%) had no chaperone ability and caused a substantial reduction in the surface expression of DAT. Dose-response curves were generated to assess the pharmacological chaperone potencies of select compounds (Figure 4).
# [2] = target: T1, K590A DAT (Homo sapiens, UniProt Q01959, K590A); test: Western blot of mature K590A DAT protein levels; conditions: overnight treatment
# T1 construct: expressed in transfected cells; host or cells: HEK293
# Procedure: (§1) Cells (1 × 10^6 cells/well) were seeded onto a 6-well plate and incubated for 24 h. Cells were then treated with drugs and incubated for 16 h. After the incubation period, cells were lysed in RIPA buffer supplemented with protease inhibitors (working concentrations: pepstatin A, 5 μg/mL; leupeptin, 10 μg/mL; aprotinin, 1.5 μg/mL; benzamidine, 0.1 μg/mL; PMSF, 0.1 mM) on ice. At 4°C, cell lysates were gently shaken for 15 min followed by centrifugation at 15,000 rpm for 15 min to pellet debris. The Pierce BCA protein assay kit (Thermo Fisher Scientific, Canada) was used to determine the protein concentration of the supernatant. To reach a concentration of 40 μg of protein per 20 μL, samples were diluted in fresh RIPA buffer with 12.5% Laemmli sample buffer and 2.5% β-Mercaptoethanol prior to being heated to 55°C. The protein was then loaded on a 7.5 or 10% SDS-PAGE gel and run at 100 V for approximately an hour or until the dye front reached the bottom of the gel. Next, protein was transferred to a PVDF membrane at 22 V for 16 h or 100 V for 1 h. Blots were blocked with LI-COR blocking buffer for 1 h and incubated for 1 h at room temperature with rabbit anti-GFP (1:1,000 dilution; Life Technologies, cat#A11122). After washing three times with TBST, blots were incubated with goat anti-rabbit IRDye-680RD secondary antibody (1:15,000; LI-COR, cat#926-68071). As a loading control, blots were incubated with mouse anti-GAPDH (1:5,000, Sigma-Aldrich, Canada, cat#G8795) prior to secondary antibody goat anti-mouse IRDye-800GR (1:5,000 dilution, Rockland, Limerick, PA, cat#610-132-007). All antibodies were diluted in LI-COR blocking buffer. Additionally, REVERT total protein staining (LI-COR, Lincoln, NE) was used as a loading control. […] Mature, fully glycosylated DAT (mDAT = 110 kDa) and immature, ER-resident DAT (iDAT = 75 kDa) were visualized using the Odyssey Imaging System (LI-COR, Lincoln, NE) and Image Studio Version 5.2 software (Supplementary Figure 1).
# (§2) We next assessed whether drugs that increase DAT surface expression also increase total protein levels of DAT. Cells expressing YFP-HA-DAT were incubated with select test compounds and DAT protein levels were examined by western blot. The effects of the compounds were assessed on WT DAT and K590A DAT. The K590A mutant is a well-characterized ER-retained, trafficking-deficient DAT mutant ([Miranda et al., 2004]) that can be rescued by pharmacological chaperones ([Beerepoot et al., 2016]).
# (§3) FIGURE 5 Effect of noribogaine, tetrahydroharmine, PAL-594, bicifadine, and RTI-20 on WT and K590A DAT expression. […] (B) Quantification of WT mDAT protein levels. […] (D) Quantification of K590A mDAT protein levels. […]
# [3] = target: T2, WT DAT (YFP-HA-DAT) (Homo sapiens, UniProt Q01959); test: Western blot of mature WT DAT protein levels; conditions: overnight 100 μM
# T2 construct: expressed in transfected cells; host or cells: HEK293
# Procedure: as §1, §2, §3
# T2 sequence (Q01959 whole entry): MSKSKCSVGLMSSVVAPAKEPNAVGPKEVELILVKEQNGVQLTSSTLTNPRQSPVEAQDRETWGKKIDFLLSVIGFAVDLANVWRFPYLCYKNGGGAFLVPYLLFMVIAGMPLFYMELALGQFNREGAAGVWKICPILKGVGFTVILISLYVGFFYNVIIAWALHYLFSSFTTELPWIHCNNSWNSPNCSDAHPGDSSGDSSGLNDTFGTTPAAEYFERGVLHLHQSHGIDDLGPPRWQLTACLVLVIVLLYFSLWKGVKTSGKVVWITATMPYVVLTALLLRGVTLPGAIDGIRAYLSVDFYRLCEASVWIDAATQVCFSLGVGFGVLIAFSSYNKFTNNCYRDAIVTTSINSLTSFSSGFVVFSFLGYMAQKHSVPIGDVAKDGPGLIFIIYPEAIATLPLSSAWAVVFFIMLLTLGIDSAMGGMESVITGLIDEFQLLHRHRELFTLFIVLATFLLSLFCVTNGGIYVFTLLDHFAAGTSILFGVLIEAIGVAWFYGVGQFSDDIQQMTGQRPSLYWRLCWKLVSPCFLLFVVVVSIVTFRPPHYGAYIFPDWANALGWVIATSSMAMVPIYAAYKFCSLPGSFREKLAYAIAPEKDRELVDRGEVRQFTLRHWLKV
# Chain of YFP-HA-βlac-DAT (Q01959 1-171 limits assumed): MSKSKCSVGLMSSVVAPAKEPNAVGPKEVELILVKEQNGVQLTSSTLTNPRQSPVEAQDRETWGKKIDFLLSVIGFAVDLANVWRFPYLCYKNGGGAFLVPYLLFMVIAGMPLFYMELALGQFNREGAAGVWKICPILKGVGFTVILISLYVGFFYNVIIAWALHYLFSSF
# Chain of YFP-HA-βlac-DAT (Q01959 237-620 limits assumed): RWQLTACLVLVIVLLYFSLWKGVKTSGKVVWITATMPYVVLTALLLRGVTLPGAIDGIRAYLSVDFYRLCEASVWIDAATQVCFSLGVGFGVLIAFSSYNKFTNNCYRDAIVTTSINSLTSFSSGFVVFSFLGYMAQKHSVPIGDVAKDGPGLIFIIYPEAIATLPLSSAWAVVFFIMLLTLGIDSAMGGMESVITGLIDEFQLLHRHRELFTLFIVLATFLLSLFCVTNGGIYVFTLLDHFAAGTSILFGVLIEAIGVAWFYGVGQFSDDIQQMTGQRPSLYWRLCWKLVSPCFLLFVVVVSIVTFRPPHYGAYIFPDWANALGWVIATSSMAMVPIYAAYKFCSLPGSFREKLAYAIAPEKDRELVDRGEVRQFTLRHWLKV
# T1 sequence (Q01959 whole entry K590A): as the sequence (Q01959 whole entry) above, with K590A counted along it
smiles,measurement,setting,value
"CCC1CC2CC3c4[nH]c5ccc(O)cc5c4CCN(C2)C13 (stereo not drawn) [Noribogaine, reference compound]",Emax,[1],251 ± 17.8%
same,K590A DAT (mDAT) protein levels,[2],statistically significant effect
same,mature WT DAT (mDAT) protein levels,[3],significantly increase
